Measured values published in the Kinase Knowledgebase extract (Sharma et al. 2016).

Tests used:
MAPK14 = MAPK14 (UniProt Q16539); test: Inhibition of MAPK14 Kinase Activity
CDK2 = CDK2 (UniProt P24941); test: Enzyme Assay

MAPK14, sequence (Q16539 whole entry, looked up): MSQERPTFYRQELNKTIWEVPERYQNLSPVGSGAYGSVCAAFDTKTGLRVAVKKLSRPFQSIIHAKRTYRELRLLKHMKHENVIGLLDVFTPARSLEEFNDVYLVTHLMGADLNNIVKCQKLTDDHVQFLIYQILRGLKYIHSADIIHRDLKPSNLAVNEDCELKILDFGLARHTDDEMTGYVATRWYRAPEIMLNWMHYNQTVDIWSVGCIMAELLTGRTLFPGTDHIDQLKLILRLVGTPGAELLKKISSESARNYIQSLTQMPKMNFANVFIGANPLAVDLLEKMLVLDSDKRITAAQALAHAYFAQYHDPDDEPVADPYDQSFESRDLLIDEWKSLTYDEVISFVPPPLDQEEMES

Compound	IC50 (MAPK14) [nM]	IC50 (CDK2) [nM]
COc1ccccc1-c1cc(C=C2C(=O)Nc3ncc(Br)cc32)cc(Br)c1O	< 1000	
C=Cc1cnc2c(c1)C(=Cc1cc(Br)c(O)c(Br)c1)C(=O)N2		< 1000
O=C1Nc2ncc(Br)cc2C1=Cc1cc(Br)c(O)c(Br)c1	< 1000	< 1000
O=C1Nc2ncc(Br)cc2C1=Cc1cc([N+](=O)[O-])c(O)c([N+](=O)[O-])c1		< 1000

The remaining lines, values ahead:

IC50 (MAPK14) [nM]	IC50 (CDK2) [nM]	Compound
< 1000	< 1000	CCc1cnc2c(c1)C(=Cc1cc(Br)c(O)c(Br)c1)C(=O)N2
< 1000		O=C1Nc2nc(Cl)ccc2C1=Cc1cc(Br)c(O)c(Br)c1
	< 1000	NS(=O)(=O)c1ccc(-c2ccc(C=C3C(=O)Nc4ncc(-c5ccsc5)cc43)o2)cc1
1000 to 10000		NC(=O)c1cncc(-c2cnc3c(c2)C(=Cc2cc(Br)c(O)c(Br)c2)C(=O)N3)c1
